In the NIST ThermoML archive (doi:10.1021/acs.jced.8b00202):
± gives the expanded uncertainty stated by the source.

Conditions: Liquid, Frequency=8 MHz, Dual path-length method

CC(C)C [2-methylpropane]
Conditions	speed of sound [m/s]
199.99 K, 409.39 kPa	1393.6 ± 0.08
199.99 K, 599.71 kPa	1394.9 ± 0.08
199.99 K, 1103.6 kPa	1398.1 ± 0.08
199.99 K, 2104.3 kPa	1404.5 ± 0.08
199.99 K, 3104.9 kPa	1410.8 ± 0.09
199.99 K, 4105.7 kPa	1417.1 ± 0.09
199.99 K, 5106.3 kPa	1423.3 ± 0.09
199.99 K, 6107 kPa	1429.4 ± 0.09
199.99 K, 7107.8 kPa	1435.5 ± 0.09
199.99 K, 8108.5 kPa	1441.5 ± 0.09
199.99 K, 9109.1 kPa	1447.5 ± 0.09
199.99 K, 10110 kPa	1453.4 ± 0.09
199.99 K, 12612 kPa	1467.8 ± 0.09
199.99 K, 15113 kPa	1482 ± 0.09
199.99 K, 17615 kPa	1495.8 ± 0.09
199.99 K, 20117 kPa	1509.3 ± 0.09
199.99 K, 25120 kPa	1535.6 ± 0.1
199.99 K, 30124 kPa	1560.8 ± 0.1
199.99 K, 35128 kPa	1585.2 ± 0.1
199.99 K, 40131 kPa	1608.7 ± 0.1
199.99 K, 45134 kPa	1631.5 ± 0.11
199.99 K, 50138 kPa	1653.5 ± 0.11
199.99 K, 60145 kPa	1695.8 ± 0.12
199.99 K, 70152 kPa	1735.8 ± 0.12
199.99 K, 80158 kPa	1773.8 ± 0.13
200 K, 90166 kPa	1810.1 ± 0.14
200 K, 100173 kPa	1844.9 ± 0.14
220 K, 1103.2 kPa	1276.9 ± 0.08
220 K, 2103.8 kPa	1284.3 ± 0.08
220 K, 3102.9 kPa	1291.5 ± 0.08
220 K, 3104.4 kPa	1291.5 ± 0.08
220 K, 4105.1 kPa	1298.6 ± 0.08
220 K, 5105.2 kPa	1305.7 ± 0.08
220 K, 6106 kPa	1312.7 ± 0.08
220 K, 7106.6 kPa	1319.5 ± 0.08
220 K, 8107.3 kPa	1326.3 ± 0.08
220 K, 9108 kPa	1333 ± 0.08
220 K, 10109 kPa	1339.7 ± 0.08
220 K, 10110 kPa	1339.7 ± 0.08
220 K, 12610 kPa	1356 ± 0.09
220 K, 15112 kPa	1371.8 ± 0.09
220 K, 17614 kPa	1387.2 ± 0.09
220 K, 20116 kPa	1402.2 ± 0.09
220 K, 20117 kPa	1402.2 ± 0.09
220 K, 25119 kPa	1431.2 ± 0.09
220 K, 30123 kPa	1459 ± 0.09
220 K, 30124 kPa	1459 ± 0.09
220 K, 35126 kPa	1485.6 ± 0.1
220 K, 40130 kPa	1511.2 ± 0.1
220 K, 40131 kPa	1511.2 ± 0.1
220 K, 45134 kPa	1535.8 ± 0.1
220 K, 50137 kPa	1559.7 ± 0.11
220 K, 60144 kPa	1605.2 ± 0.11
220 K, 70151 kPa	1648 ± 0.12
220 K, 80158 kPa	1688.5 ± 0.12
220 K, 90165 kPa	1727 ± 0.13
220 K, 100172 kPa	1763.8 ± 0.14
240 K, 402.14 kPa	1153 ± 0.08
240 K, 402.77 kPa	1153 ± 0.08
240 K, 602.82 kPa	1154.8 ± 0.08
240 K, 1103.6 kPa	1159 ± 0.08
240 K, 2103.9 kPa	1167.5 ± 0.08
240 K, 2104.3 kPa	1167.5 ± 0.08
240 K, 3104.9 kPa	1175.8 ± 0.08
240 K, 4105.7 kPa	1184 ± 0.08
240 K, 5106.3 kPa	1192.1 ± 0.08
240 K, 6107.2 kPa	1200 ± 0.08
240 K, 7108 kPa	1207.8 ± 0.08
240 K, 8108.1 kPa	1215.5 ± 0.08
240 K, 8109.3 kPa	1215.5 ± 0.08
240 K, 9110.1 kPa	1223.1 ± 0.08
240 K, 10111 kPa	1230.6 ± 0.08
240 K, 12613 kPa	1248.8 ± 0.08
240 K, 15113 kPa	1266.5 ± 0.08
240 K, 15114 kPa	1266.5 ± 0.08
240 K, 17616 kPa	1283.7 ± 0.08
240 K, 20118 kPa	1300.3 ± 0.09
240 K, 25121 kPa	1332.3 ± 0.09
240 K, 30124 kPa	1362.6 ± 0.09
240 K, 30125 kPa	1362.6 ± 0.09
240 K, 35128 kPa	1391.6 ± 0.09
240 K, 40132 kPa	1419.3 ± 0.1
240 K, 45135 kPa	1445.9 ± 0.1
240 K, 50139 kPa	1471.5 ± 0.1
240 K, 60146 kPa	1520.1 ± 0.11
240 K, 70153 kPa	1565.7 ± 0.11
240 K, 80160 kPa	1608.6 ± 0.12
240 K, 90167 kPa	1649.3 ± 0.13
240 K, 100174 kPa	1688 ± 0.13
259.99 K, 8108.1 kPa	1108.7 ± 0.08
259.99 K, 15113 kPa	1166 ± 0.08
259.99 K, 30123 kPa	1271.7 ± 0.09
260 K, 402.73 kPa	1036.8 ± 0.08
260 K, 405.47 kPa	1036.7 ± 0.08
260 K, 607.87 kPa	1038.8 ± 0.08
260 K, 1106.4 kPa	1043.8 ± 0.08
260 K, 2104 kPa	1053.6 ± 0.08
260 K, 2107.1 kPa	1053.6 ± 0.08
260 K, 3107.8 kPa	1063.2 ± 0.08
260 K, 4108.4 kPa	1072.7 ± 0.08
260 K, 5109.1 kPa	1081.9 ± 0.08
260 K, 6109.7 kPa	1091 ± 0.08
260 K, 7111 kPa	1099.9 ± 0.08
260 K, 8111.7 kPa	1108.6 ± 0.08
260 K, 9112.4 kPa	1117.2 ± 0.08
260 K, 10113 kPa	1125.7 ± 0.08
260 K, 12615 kPa	1146.2 ± 0.08
260 K, 15116 kPa	1166 ± 0.08
260 K, 17618 kPa	1185 ± 0.08
260 K, 20120 kPa	1203.5 ± 0.08
260 K, 25123 kPa	1238.6 ± 0.08
260 K, 30127 kPa	1271.7 ± 0.09
260 K, 35130 kPa	1303.1 ± 0.09
260 K, 40134 kPa	1333 ± 0.09
260 K, 45137 kPa	1361.5 ± 0.09
260 K, 50140 kPa	1388.9 ± 0.1
260 K, 60147 kPa	1440.6 ± 0.1
260 K, 70154 kPa	1488.7 ± 0.11
260 K, 80161 kPa	1533.9 ± 0.12
260 K, 90168 kPa	1576.6 ± 0.12
260 K, 100175 kPa	1617.2 ± 0.13
280 K, 402.43 kPa	921.86 ± 0.077
280 K, 602.22 kPa	924.25 ± 0.076
280 K, 606.25 kPa	924.3 ± 0.076
280 K, 1103.2 kPa	930.19 ± 0.076
280 K, 2103.9 kPa	941.79 ± 0.076
280 K, 3104.4 kPa	953.08 ± 0.076
280 K, 4105.1 kPa	964.08 ± 0.076
280 K, 5105.7 kPa	974.8 ± 0.076
280 K, 6106.3 kPa	985.26 ± 0.075
280 K, 7107 kPa	995.5 ± 0.076
280 K, 8107.9 kPa	1005.5 ± 0.07
280 K, 9108.6 kPa	1015.3 ± 0.07
280 K, 10109 kPa	1024.9 ± 0.08
280 K, 12611 kPa	1048 ± 0.08
280 K, 15113 kPa	1070.1 ± 0.08
280 K, 17614 kPa	1091.3 ± 0.08
280 K, 20116 kPa	1111.6 ± 0.08
280 K, 25119 kPa	1150.1 ± 0.08
280 K, 30123 kPa	1186.1 ± 0.08
280 K, 35126 kPa	1220 ± 0.08
280 K, 40130 kPa	1252.1 ± 0.09
280 K, 45133 kPa	1282.6 ± 0.09
280 K, 50137 kPa	1311.8 ± 0.09
280 K, 60144 kPa	1366.4 ± 0.1
280 K, 70151 kPa	1417.1 ± 0.1
280 K, 80158 kPa	1464.6 ± 0.11
280 K, 90164 kPa	1509.1 ± 0.12
280 K, 100171 kPa	1551.2 ± 0.12
299.99 K, 3104.6 kPa	844.54 ± 0.075
300 K, 601.97 kPa	809.82 ± 0.076
300 K, 1103.1 kPa	817.03 ± 0.076
300 K, 1103.4 kPa	817.08 ± 0.076
300 K, 4105.3 kPa	857.55 ± 0.075
300 K, 5106 kPa	870.14 ± 0.074
300 K, 5106.3 kPa	870.12 ± 0.074
300 K, 6106.5 kPa	882.34 ± 0.074
300 K, 7107.5 kPa	894.17 ± 0.074
300 K, 8108.1 kPa	905.68 ± 0.074
300 K, 9108.7 kPa	916.91 ± 0.074
300 K, 10109 kPa	927.83 ± 0.074
300 K, 12611 kPa	954.01 ± 0.074
300 K, 15113 kPa	978.78 ± 0.075
300 K, 17614 kPa	1002.3 ± 0.07
300 K, 20116 kPa	1024.8 ± 0.08
300 K, 25120 kPa	1066.9 ± 0.08
300 K, 30123 kPa	1105.9 ± 0.08
300 K, 35127 kPa	1142.4 ± 0.08
300 K, 40131 kPa	1176.7 ± 0.08
300 K, 45134 kPa	1209.2 ± 0.09
